Laboratory results taken from ChEMBL document CHEMBL5291721, “A preclinical secondary pharmacology resource illuminates target-adverse drug reaction associations of marketed drugs” (Nat Commun, 2023).

Columns and labels:
[1] = biological target: Melanocortin receptor 3 (Homo sapiens, UniProt P41968)
[2] = biological target: Vasopressin V1a receptor (Homo sapiens, UniProt P37288)
[3] = biological target: T1, 5-hydroxytryptamine receptor 2C (Homo sapiens, UniProt P28335)
T1 sequence (P28335 whole entry): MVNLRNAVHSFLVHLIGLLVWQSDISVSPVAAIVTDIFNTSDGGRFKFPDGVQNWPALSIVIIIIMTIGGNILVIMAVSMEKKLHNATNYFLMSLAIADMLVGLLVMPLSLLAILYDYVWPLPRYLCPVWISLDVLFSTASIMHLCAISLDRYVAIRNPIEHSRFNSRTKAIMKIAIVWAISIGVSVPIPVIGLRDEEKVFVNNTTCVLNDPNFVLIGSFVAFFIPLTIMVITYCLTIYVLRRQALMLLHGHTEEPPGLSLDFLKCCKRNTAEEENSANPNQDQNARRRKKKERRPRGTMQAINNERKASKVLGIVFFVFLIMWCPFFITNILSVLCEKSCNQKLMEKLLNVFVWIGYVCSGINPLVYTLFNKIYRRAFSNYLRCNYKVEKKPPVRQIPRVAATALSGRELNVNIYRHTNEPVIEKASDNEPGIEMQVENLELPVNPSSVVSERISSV

[4] = biological target: T2, 5-hydroxytryptamine receptor 1A (Homo sapiens, UniProt P08908); type: functional, cell-based
T2 sequence (P08908 whole entry): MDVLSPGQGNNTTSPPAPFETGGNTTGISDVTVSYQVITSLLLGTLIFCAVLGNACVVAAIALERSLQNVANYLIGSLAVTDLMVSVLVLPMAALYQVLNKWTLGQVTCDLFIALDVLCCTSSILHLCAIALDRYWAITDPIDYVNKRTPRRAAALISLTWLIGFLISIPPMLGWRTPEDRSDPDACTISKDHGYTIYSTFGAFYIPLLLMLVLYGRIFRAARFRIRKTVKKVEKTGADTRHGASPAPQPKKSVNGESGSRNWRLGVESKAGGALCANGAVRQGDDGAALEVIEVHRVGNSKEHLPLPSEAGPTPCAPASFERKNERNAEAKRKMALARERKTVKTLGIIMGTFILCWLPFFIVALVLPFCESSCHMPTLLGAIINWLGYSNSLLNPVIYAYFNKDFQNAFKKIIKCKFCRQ

[5] = biological target: T3, Type-1 angiotensin II receptor (Homo sapiens, UniProt P30556)
T3 sequence (P30556 whole entry): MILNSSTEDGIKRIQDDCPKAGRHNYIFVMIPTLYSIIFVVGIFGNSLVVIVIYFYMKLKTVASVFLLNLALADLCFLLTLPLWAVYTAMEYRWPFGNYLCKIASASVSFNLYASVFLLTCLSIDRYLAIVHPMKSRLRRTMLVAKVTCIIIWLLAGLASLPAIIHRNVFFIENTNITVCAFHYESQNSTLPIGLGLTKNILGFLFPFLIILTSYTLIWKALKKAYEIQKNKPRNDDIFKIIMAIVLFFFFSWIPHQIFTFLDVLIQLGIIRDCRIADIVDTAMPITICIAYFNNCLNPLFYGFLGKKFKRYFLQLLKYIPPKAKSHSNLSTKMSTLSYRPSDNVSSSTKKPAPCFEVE

[6] = biological target: Beta-2 adrenergic receptor (Homo sapiens, UniProt P07550); type: functional, cell-based
Chain of Beta-2 adrenergic receptor (P07550 whole entry): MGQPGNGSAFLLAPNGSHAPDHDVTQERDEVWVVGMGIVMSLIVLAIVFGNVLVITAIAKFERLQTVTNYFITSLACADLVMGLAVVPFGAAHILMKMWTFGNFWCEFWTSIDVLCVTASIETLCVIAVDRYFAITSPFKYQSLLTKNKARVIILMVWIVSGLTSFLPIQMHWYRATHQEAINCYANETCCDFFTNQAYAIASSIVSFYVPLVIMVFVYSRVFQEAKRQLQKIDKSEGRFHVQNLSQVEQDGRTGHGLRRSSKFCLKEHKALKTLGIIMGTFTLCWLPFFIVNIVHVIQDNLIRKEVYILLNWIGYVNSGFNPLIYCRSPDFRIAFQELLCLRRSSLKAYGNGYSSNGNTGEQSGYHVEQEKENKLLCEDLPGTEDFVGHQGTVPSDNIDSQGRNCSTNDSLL

[7] = biological target: Cannabinoid receptor 1 (Homo sapiens, UniProt P21554)
Chain of Cannabinoid receptor 1 (P21554 whole entry): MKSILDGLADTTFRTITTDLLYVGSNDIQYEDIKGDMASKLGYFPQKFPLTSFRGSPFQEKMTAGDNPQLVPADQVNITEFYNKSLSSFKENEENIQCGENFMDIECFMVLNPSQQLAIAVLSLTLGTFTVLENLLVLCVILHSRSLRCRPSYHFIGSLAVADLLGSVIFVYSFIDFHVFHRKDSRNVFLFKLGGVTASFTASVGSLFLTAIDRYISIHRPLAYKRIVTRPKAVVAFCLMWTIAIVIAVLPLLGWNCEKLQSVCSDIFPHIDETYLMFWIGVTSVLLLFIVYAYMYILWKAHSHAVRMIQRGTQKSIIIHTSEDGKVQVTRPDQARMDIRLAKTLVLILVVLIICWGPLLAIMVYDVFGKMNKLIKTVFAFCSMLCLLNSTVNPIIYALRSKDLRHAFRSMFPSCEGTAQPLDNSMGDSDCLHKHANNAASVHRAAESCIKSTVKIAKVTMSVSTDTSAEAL

[8] = biological target: T4, Alpha-2A adrenergic receptor (Homo sapiens, UniProt P08913)
T4 sequence (P08913 whole entry): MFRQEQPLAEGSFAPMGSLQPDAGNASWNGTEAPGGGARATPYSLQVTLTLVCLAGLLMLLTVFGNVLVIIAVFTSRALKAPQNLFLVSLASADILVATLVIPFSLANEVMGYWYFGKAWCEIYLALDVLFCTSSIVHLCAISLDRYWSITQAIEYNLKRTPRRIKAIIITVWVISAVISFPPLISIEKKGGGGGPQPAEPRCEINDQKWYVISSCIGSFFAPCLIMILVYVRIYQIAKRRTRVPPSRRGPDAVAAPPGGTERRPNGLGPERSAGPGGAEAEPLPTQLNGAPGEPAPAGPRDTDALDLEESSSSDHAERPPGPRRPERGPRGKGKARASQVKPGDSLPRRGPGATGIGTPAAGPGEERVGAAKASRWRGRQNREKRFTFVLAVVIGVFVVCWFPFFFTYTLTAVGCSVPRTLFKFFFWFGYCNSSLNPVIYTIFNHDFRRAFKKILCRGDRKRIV

[9] = biological target: Prothrombin (Homo sapiens, UniProt P00734); type: functional
[10] = biological target: Sodium-dependent dopamine transporter (Homo sapiens, UniProt Q01959)
Chain of Sodium-dependent dopamine transporter (Q01959 whole entry): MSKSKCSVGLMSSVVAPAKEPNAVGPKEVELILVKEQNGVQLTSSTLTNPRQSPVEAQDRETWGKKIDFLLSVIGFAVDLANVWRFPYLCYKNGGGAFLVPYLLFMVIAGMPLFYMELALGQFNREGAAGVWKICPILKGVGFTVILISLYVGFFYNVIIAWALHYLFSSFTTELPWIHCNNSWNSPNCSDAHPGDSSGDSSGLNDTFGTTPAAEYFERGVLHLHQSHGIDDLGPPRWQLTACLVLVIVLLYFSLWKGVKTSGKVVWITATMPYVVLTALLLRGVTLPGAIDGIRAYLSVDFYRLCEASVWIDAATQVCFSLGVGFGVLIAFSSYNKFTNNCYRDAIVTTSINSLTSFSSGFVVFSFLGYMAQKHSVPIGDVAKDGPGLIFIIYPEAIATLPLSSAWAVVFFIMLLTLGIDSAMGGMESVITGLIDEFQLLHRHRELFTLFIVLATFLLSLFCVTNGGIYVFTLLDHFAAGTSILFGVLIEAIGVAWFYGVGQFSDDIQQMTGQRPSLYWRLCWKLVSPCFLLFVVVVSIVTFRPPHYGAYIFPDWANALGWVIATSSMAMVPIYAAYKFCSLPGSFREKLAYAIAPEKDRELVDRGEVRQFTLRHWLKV

[11] = biological target: T5, Progesterone receptor (Homo sapiens, UniProt P06401)
T5 sequence (P06401 whole entry): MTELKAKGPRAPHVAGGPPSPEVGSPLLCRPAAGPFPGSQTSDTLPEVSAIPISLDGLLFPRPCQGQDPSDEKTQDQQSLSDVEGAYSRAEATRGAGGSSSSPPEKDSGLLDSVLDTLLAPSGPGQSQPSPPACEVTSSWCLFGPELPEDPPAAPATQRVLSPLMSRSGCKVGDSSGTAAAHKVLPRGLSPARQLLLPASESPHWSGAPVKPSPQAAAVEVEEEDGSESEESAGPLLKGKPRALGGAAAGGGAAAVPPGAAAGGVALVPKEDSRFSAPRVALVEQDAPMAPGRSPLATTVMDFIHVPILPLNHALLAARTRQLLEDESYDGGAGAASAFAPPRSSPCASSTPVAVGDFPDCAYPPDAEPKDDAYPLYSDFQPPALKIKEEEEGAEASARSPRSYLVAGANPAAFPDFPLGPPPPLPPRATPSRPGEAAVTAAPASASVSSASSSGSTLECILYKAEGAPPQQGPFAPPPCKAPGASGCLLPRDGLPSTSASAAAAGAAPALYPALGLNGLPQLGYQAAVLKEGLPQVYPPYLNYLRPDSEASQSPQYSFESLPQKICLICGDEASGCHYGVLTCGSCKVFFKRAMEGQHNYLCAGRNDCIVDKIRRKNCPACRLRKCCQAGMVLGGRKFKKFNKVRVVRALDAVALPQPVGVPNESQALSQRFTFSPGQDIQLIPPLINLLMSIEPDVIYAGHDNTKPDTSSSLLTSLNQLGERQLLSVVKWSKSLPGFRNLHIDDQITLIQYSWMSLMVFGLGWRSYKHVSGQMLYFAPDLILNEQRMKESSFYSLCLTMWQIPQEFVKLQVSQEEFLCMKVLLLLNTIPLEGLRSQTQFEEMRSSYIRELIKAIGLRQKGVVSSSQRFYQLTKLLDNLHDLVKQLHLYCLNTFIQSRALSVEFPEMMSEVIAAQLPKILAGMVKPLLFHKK
Further: assay procedure not described here.

Chain of Melanocortin receptor 3 (P41968 whole entry): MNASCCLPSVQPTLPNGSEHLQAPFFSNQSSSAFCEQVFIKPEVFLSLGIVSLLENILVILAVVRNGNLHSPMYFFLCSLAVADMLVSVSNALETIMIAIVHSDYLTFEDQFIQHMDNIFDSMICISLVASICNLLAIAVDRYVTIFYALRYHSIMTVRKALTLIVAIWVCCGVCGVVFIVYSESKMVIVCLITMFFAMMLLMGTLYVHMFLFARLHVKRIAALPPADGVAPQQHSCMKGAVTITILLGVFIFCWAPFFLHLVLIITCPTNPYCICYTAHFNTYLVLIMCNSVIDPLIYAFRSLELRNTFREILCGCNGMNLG
Chain of Vasopressin V1a receptor (P37288 whole entry): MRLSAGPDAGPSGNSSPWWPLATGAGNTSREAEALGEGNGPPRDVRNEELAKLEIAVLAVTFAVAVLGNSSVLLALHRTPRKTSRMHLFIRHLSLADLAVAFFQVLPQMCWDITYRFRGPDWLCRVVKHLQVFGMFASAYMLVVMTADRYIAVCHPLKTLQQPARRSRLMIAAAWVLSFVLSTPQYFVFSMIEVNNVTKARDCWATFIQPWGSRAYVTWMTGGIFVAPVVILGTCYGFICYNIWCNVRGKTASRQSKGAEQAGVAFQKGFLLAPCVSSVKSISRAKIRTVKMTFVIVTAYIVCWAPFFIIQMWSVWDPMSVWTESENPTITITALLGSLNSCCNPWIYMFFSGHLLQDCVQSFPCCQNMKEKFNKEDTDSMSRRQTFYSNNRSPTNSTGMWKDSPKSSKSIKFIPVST

Structure (SMILES)	AC50 [1] [µM]	AC50 [2] [µM]	AC50 [3] [µM]	AC50 [4] [µM]	AC50 [5] [µM]	AC50 [6] [µM]	AC50 [7] [µM]	AC50 [8] [µM]	AC50 [9] [µM]	AC50 [10] [µM]	AC50 [11] [µM]
CC(C)c1nc(N(C)S(C)(=O)=O)nc(-c2ccc(F)cc2)c1/C=C/[C@@H](O)C[C@@H](O)CC(=O)O [ROSUVASTATIN]	> 30	> 30	> 30	> 30	> 30	> 30					
COc1ccc(CC2c3cc(OC)c(OC)cc3CC[N+]2(C)CCC(=O)OCCCCCOC(=O)CC[N+]2(C)CCc3cc(OC)c(OC)cc3C2Cc2ccc(OC)c(OC)c2)cc1OC (stereo not given)	> 30	> 30	6.3	> 30	> 30		> 30				
CC(S)C(=O)NCC(=O)O (stereo not given) [TIOPRONIN]	> 30	> 30	> 30	> 30	> 30	> 30					
CCCC(CCC)C(=O)O [VALPROIC ACID]	> 30	> 30	11	> 10	> 30		> 10	> 30	> 30	> 30	> 30
CN(C)CCC[C@@]1(c2ccc(F)cc2)OCc2cc(C#N)ccc21 [ESCITALOPRAM]	> 30	> 30		> 30	> 30	> 30					
CN1C(C(=O)Nc2ccccn2)=C(O)c2ccccc2S1(=O)=O [PIROXICAM]	> 10	> 10	> 30	> 10	> 30		> 10	> 30	> 30	> 30	> 30
C[C@]12C=CC(=O)N[C@@H]1CC[C@@H]1[C@@H]2CC[C@]2(C)[C@@H](C(=O)Nc3cc(C(F)(F)F)ccc3C(F)(F)F)CC[C@@H]12 [DUTASTERIDE]	> 10	> 10	> 30	> 10	> 30		> 10				
CCN1CCN(Cc2ccc(Nc3ncc(F)c(-c4cc(F)c5nc(C)n(C(C)C)c5c4)n3)nc2)CC1 [ABEMACICLIB]	> 30	> 30	> 30	> 30	> 30	> 30					
CO[C@H]1/C=C/O[C@@]2(C)Oc3c(C)c(O)c4c(O)c(c(/C=N/N5CCN(C)CC5)c(O)c4c3C2=O)NC(=O)/C(C)=C\C=C\[C@H](C)[C@H](O)[C@@H](C)[C@@H](O)[C@@H](C)[C@H](OC(C)=O)[C@@H]1C [RIFAMPIN]	> 30	26.7		> 30	19.4		> 30				
CC(N)C12CC3CC(CC(C3)C1)C2 (stereo not given) [RIMANTADINE]	> 10		> 30	> 10	> 10		> 10				
